# Measurements: PubChem BioAssay (NCI)
# Values joined by “and” are separate entries in the source; they are usually repeats but may differ in a detail not shown here. Equal values may be shown once.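 1) Cells in 96-well plates. 2) Compound, 48 h, 5 concentrations. 3) Linear interpolation between surrounding doses. 4) Unreached endpoint = highest concentration. GI50: concentration for 50% inhibition of growth. TGI: concentration producing complete growth inhibition.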
# Experiments:
# Assay in all cases: NCI-60 cell line screen, 48 h
# 786-0 renal = tested on: 786-0 renal
# A498 renal = tested on: A498 renal
# BT-549 breast = tested on: BT-549 breast
# CAKI-1 renal = tested on: CAKI-1 renal
# HOP-62 NSCLC = tested on: HOP-62 NSCLC
# HT29 colon = tested on: HT29 colon
# NCI-H226 lung = tested on: NCI-H226 lung
# NCI-H522 lung = tested on: NCI-H522 lung
# SF-539 CNS = tested on: SF-539 CNS
# TK-10 renal = tested on: TK-10 renal
SMILES,GI50 (786-0 renal),TGI (786-0 renal),GI50 (A498 renal),TGI (A498 renal),GI50 (BT-549 breast),TGI (BT-549 breast),GI50 (CAKI-1 renal),TGI (CAKI-1 renal),GI50 (HOP-62 NSCLC),TGI (HOP-62 NSCLC),GI50 (HT29 colon),TGI (HT29 colon),GI50 (NCI-H226 lung) [µM],TGI (NCI-H226 lung),GI50 (NCI-H522 lung),TGI (NCI-H522 lung),GI50 (SF-539 CNS),TGI (SF-539 CNS),GI50 (TK-10 renal),TGI (TK-10 renal)
CC(C)(CO)N=Cc1ccccc1[O-].CC(C)(CO)N=Cc1ccccc1[O-].[Co+2],42.1 µM,> 100 µM,> 100 µM,> 100 µM,14.5 µM,> 63.4 µM,53.7 µM,> 100 µM,> 100 µM,> 100 µM,100 µM,> 100 µM,27.9,> 100 µM,30.4 µM,90.5 µM,66.5 µM,> 100 µM,81.3 µM,> 100 µM
CCCCCCCCCCCCCCCCS(=O)(=O)c1ccc(NN)cc1,,> 10 µM,,> 10 µM,,> 10 µM,,> 10 µM,,> 10 µM,,> 10 µM,,,,> 10 µM,,> 10 µM,,> 10 µM
Cc1cc(=O)oc2cc(OCCn3c(C)nn(-c4ccc(Cl)cc4)c3=O)ccc12,5.7 µM,> 100 µM,1.13 µM,31.9 µM,16.5 µM,99.4 µM,> 100 µM,> 100 µM,3.05 µM,32.9 µM,3.82 µM,> 100 µM,,,3.85 µM,33.2 µM,4.06 µM,47.3 µM,13.4 µM,88.4 µM
CC(=O)Oc1ccc(C2(c3ccc(OC(C)=O)cc3)C(=O)Nc3ccccc32)cc1,42.6 µM and 46.6 µM,> 100 µM,24.6 µM and 26.8 µM,> 76.1 µM and 89.8 µM,0.064 µM and 0.158 µM,0.524 µM and 0.733 µM,31.4 µM and 31.8 µM,> 100 µM,34.7 µM and 35.1 µM,> 100 µM,30.4 µM and 45.3 µM,> 100 µM,> 100,> 100 µM,3.12 µM and 4.56 µM,> 100 µM,26.3 µM and 50.2 µM,> 100 µM,3.14 µM and 17.6 µM,> 100 µM
COc1ccc(C2ONC3=NCCN32)cc1 (stereo not given),25.5 µM,> 100 µM,> 100 µM,> 100 µM,94.1 µM,> 100 µM,48.2 µM,> 100 µM,84.9 µM,> 100 µM,68.8 µM,> 100 µM,61.4,> 100 µM,> 100 µM,> 100 µM,84.8 µM,> 100 µM,> 100 µM,> 100 µM
O=C(O)C1C2C=CC(O2)C1C(=O)Nc1ncccn1 (stereo not given),,> 100 µM,,> 100 µM,,> 100 µM,,> 100 µM,,> 100 µM,,> 100 µM,,> 100 µM,,> 100 µM,,> 100 µM,,> 100 µM
CCCn1cnc2c(SCc3ccccc3)nc(N)nc21,> 100 µM,> 100 µM,19.7 µM,75.2 µM,51.9 µM,> 100 µM,89.3 µM,> 100 µM,> 100 µM,> 100 µM,> 100 µM,> 100 µM,30.5,> 100 µM,> 100 µM,> 100 µM,> 100 µM,> 100 µM,80.5 µM,> 100 µM
O=C(Nc1cc(S(=O)(=O)c2ccc(Cl)cc2)ccc1Cl)c1cc(I)cc(I)c1O,15.6 µM,30 µM,15.3 µM,31.6 µM,19.9 µM,39.8 µM,20.3 µM,38.2 µM,18.6 µM,34.1 µM,16.4 µM,30.2 µM,26.8,69.1 µM,11.8 µM,26.6 µM,18.6 µM,38.2 µM,18.1 µM,34.2 µM
O=c1oc2ccc(F)cc2c(=O)n1-c1ccc(Br)cc1F,2.79 µM,9.42 µM,0.184 µM,0.72 µM,0.411 µM,2.19 µM,0.393 µM,3.69 µM,1.64 µM,7.25 µM,3.4 µM,> 44.3 µM,1.08,4.87 µM,0.363 µM,9.38 µM,0.45 µM,6.35 µM,4.22 µM,18 µM
CCN(CC)CCOc1ccc(/C=C2\CC3C4CC=C5C[C@@H](OC(C)=O)CC[C@]5(C)C4CC[C@]3(C)C2=O)cc1OC (stereo not given in full),2.03 µM,4.29 µM,3.01 µM,11.6 µM,11.4 µM,33 µM,0.429 µM,2.52 µM,4.34 µM,16.8 µM,4.07 µM,> 100 µM,13.3,35.9 µM,14.4 µM,33.1 µM,,,2.53 µM,6.1 µM
C=CC(=O)Nc1cccc(Nc2nc(Nc3ccc(OCCOC(F)F)cc3)ncc2F)c1,1.32 µM,12.1 µM,0.408 µM,1.83 µM,1.36 µM,11.6 µM,1.28 µM,10.1 µM,2.38 µM,17.2 µM,2.67 µM,13.5 µM,0.52,11.2 µM,1.88 µM,7.44 µM,,,0.515 µM,2.93 µM
c1cnc2[nH]cc(-c3csc(-c4cn(CCCN5CCCCC5)c5ccccc45)n3)c2c1,1.63 µM,3.06 µM,1.83 µM,3.38 µM,1.68 µM,3.24 µM,,,1.47 µM,3.02 µM,1.75 µM,3.44 µM,,,,,1.68 µM,3.1 µM,2.22 µM,3.79 µM
O=C(/C=C/c1cn(-c2ccccc2)nc1-c1ccc([N+](=O)[O-])cc1)c1ccc(Cl)cc1,3.94 µM,55.3 µM,4.99 µM,> 100 µM,3.13 µM,> 32.1 µM,> 21.3 µM,> 100 µM,14.9 µM,51.1 µM,,,,> 100 µM,6.41 µM,> 100 µM,2.19 µM,,3.09 µM,13.4 µM
Cn1cnc([N+](=O)[O-])c1Sc1nc(N)nc2nc[nH]c12,2.04 µM,> 100 µM,> 23.7 µM,> 100 µM,5.08 µM,> 100 µM,2.72 µM,> 100 µM,1.22 µM,> 100 µM,5.19 µM,> 100 µM,7.5,> 100 µM,3.56 µM,> 90.5 µM,3.15 µM,> 100 µM,5.75 µM,> 100 µM
Cc1ccc(/C=C2\CNC/C(=C\c3ccc(C)cc3)C2=O)cc1,,2.79 µM and 3.89 µM,1.63 µM,3.36 µM and 3.56 µM,,4.28 µM,1.63 µM,4.49 µM and 7.54 µM,3.26 µM,9.75 µM and 7.33 µM,0.392 µM,1.41 µM and 3.04 µM,,4.85 µM and 4.96 µM,1.64 µM,3.04 µM and 4.63 µM,1.53 µM,5.04 µM and 19.5 µM,0.509 µM,2.2 µM and 13.9 µM
COc1ccc2cc(-c3c(-c4ccncc4)nc(-c4ccc(S(C)=O)cc4C)n3C)ccc2c1 (stereo not given),24.3 µM,> 25 µM,8.32 µM,> 25 µM,> 21.9 µM,> 25 µM,6.98 µM,> 25 µM,24.7 µM,> 25 µM,10.6 µM,> 25 µM,> 20.5,> 25 µM,10.6 µM,> 25 µM,> 25 µM,> 25 µM,7.62 µM,> 25 µM
COc1ccc(/C=C(/C(=O)n2cnnn2)c2cc(OC)c(OC)c(OC)c2)cc1,4.76 µM,> 100 µM,4.26 µM,> 100 µM,2.32 µM,7.57 µM,4.15 µM,> 100 µM,4.82 µM,> 100 µM,3.42 µM,> 100 µM,> 100,> 100 µM,2.26 µM,6.67 µM,3.2 µM,19.9 µM,7.59 µM,> 100 µM
Cc1cc(NC(=O)NC(=O)c2ccccc2N(C)C)ccc1Oc1ncc(Br)cn1,0.322 µM,44.6 µM,,6.71 µM,,> 46.4 µM,0.588 µM and 0.402 µM,> 100 µM,,57.9 µM,,15.2 µM,1.88,> 90 µM,0.164 µM,0.408 µM and 0.587 µM,0.208 µM,0.548 µM and 1.03 µM,0.984 µM,> 68.1 µM
O=C(O)C1C(C(=O)O)C2(Cl)C(Cl)=C(Cl)C1(Cl)C2(Cl)Cl.[Cd] (stereo not given),8.59 µM,22 µM,> 100 µM,> 100 µM,1.33 µM,2.74 µM,17.8 µM,34.4 µM,22.7 µM,48.6 µM,18.4 µM,35.9 µM,34.9,> 66.7 µM,0.412 µM,1.78 µM,3.66 µM,11.7 µM,19 µM,34.7 µM
COc1ccc(/C=C/C(=O)C(C)(C)Br)cc1,,23.7 µM,,37.1 µM,,7.06 µM,,35.7 µM,,25.3 µM,,,,,,2.92 µM,,32.2 µM,,29.7 µM
COc1cc([C@H]2c3[nH]c4ccccc4c3C[C@H]3COC(=O)N32)cc(OC)c1O,,10.7 µM,,20.9 µM,,> 100 µM,,46.8 µM,,34.2 µM,,25.3 µM,,28.5 µM,,,,2.86 µM,,27 µM
CCOCNc1ccc(N2C(=O)/C(=C/c3ccc(N(CC)CC)cc3)N=C2c2ccccc2)cc1,5.64 µM,22.9 µM,35.4 µM,> 100 µM,33.5 µM,> 100 µM,12.5 µM,56.8 µM,12.6 µM,35.3 µM,6.88 µM,> 100 µM,8.24,> 100 µM,,,4.87 µM,26.7 µM,22.3 µM,> 100 µM
COc1ccc(-c2cc(/C=C/C(=O)c3cc(OC)c(OC)c(OC)c3)[nH]n2)cc1OC,1.5 µM,2.9 µM,1.46 µM,4.99 µM,1.36 µM,2.93 µM,,,1.45 µM,3.59 µM,1.3 µM,2.73 µM,1.93,7.91 µM,1.33 µM,2.68 µM,0.309 µM,1.48 µM,3.27 µM,11.8 µM
CC12OC(C(=O)C13CCC3)C1C(=O)c3ccccc3C(=O)C12 (stereo not given),> 100 µM,> 100 µM,,,> 100 µM,> 100 µM,32.7 µM,> 100 µM,> 100 µM,> 100 µM,> 100 µM,> 100 µM,38.4,> 100 µM,> 100 µM,> 100 µM,> 100 µM,> 100 µM,92.5 µM,> 100 µM
C[C@@H]1C/C=C\C(=O)O[C@H](/C=C/C#C/C=C/C(C)(C)[C@@H](O)c2cccc(O)c2Br)[C@@H](C)/C=C/[C@H](C)C[C@H](OC(N)=O)C1,0.0361 µM,15.2 µM,0.543 µM,18.7 µM,0.0308 µM,18.2 µM,0.0462 µM,13.8 µM,0.633 µM,21.4 µM,0.029 µM,5.77 µM,0.445,19 µM,0.0417 µM,14.7 µM,,,4.28 µM,21.6 µM
NC(N)=N/N=C/c1c(-c2ccc(Cl)c([N+](=O)[O-])c2)nc2n1CCS2,4.18 µM,15.3 µM,18.3 µM,39.5 µM,21.5 µM,50.2 µM,13.5 µM,28 µM,2.83 µM,9.44 µM,6.13 µM,30.9 µM,4.24,24 µM,35.6 µM,> 100 µM,7.4 µM,26.5 µM,,
CC(C)(C)[Si](C)(C)OCC1OC(n2cnc3c(N)ncnc32)C(O)C1O (stereo not given),,> 100 µM,,,,> 100 µM,,> 100 µM,,> 100 µM,,> 100 µM,,> 100 µM,,> 100 µM,,> 100 µM,,> 100 µM
O=c1[nH]c2cc(Cl)c(Cl)cc2n2cc3ccccc3c12,24.9 µM,39.6 µM,15.8 µM,29.9 µM,26.5 µM,57.2 µM,20.6 µM,34.9 µM,,,29 µM,> 100 µM,18.6,35.9 µM,10.2 µM,31 µM,19.1 µM,39.5 µM,16.8 µM,30.4 µM
